Assay results: DBAASP
≈ marks a conversion by molar mass, not a printed value. Each block holds one compound with its values, some of them ahead of it.

Experiments:
Assay in all cases: ≥ marks a high value that may be exact or a test limit, other limits are often not marked, values filed in µg/mL are converted to µM
[1] = test system: Bacillus subtilis ATCC 62037
[2] = test system: Candida albicans ATCC 10231
[3] = test system: Cryptococcus neoformans ATCC 34881
[4] = test system: Escherichia coli ATCC 27325
[5] = test system: Pseudomonas putida ATCC 17426
[6] = test system: Saccharomyces cerevisiae ATCC 44774
[7] = test system: Salmonella enterica subsp. enterica serovar Enteritidis ATCC 13076
[8] = test system: Staphylococcus aureus ATCC 15752
[9] = test system: Streptococcus mutans ATCC 25175
[10] = test system: Enterococcus faecalis NCTC 12697
[11] = test system: Escherichia coli ATCC 25922
[12] = test system: Lactobacillus acidophilus NCTC 1723
[13] = test system: Pseudomonas aeruginosa ATCC 15692
[14] = test system: Pseudomonas aeruginosa ATCC 27853
[15] = test system: Staphylococcus aureus ATCC 25923
[16] = test system: Streptococcus mutans NCTC 10449
Bacillus subtilis = test system: Bacillus subtilis
Candida albicans = test system: Candida albicans
Enterococcus faecium = test system: Enterococcus faecium
[17] = test system: Escherichia coli DH5alpha
[18] = test system: Escherichia coli K-12 D31
Morganella morganii = test system: Morganella morganii
Saccharomyces cerevisiae = test system: Saccharomyces cerevisiae
Salmonella enterica = test system: Salmonella enterica
Staphylococcus aureus = test system: Staphylococcus aureus
[19] = test system: Staphylococcus haemolyticus
[20] = test system: Staphylococcus saprophyticus
Staphylococcus warneri = test system: Staphylococcus warneri
[21] = test system: Acinetobacter baumannii NM8
[22] = test system: Candida albicans ATCC 90028
[23] = test system: Escherichia coli ATCC 25726
[24] = test system: Klebsiella pneumoniae ATCC 700603
[25] = test system: Staphylococcus epidermidis RP62A/1
[26] = test system: Staphylococcus epidermidis RP62A
[27] = test system: Stenotrophomonas maltophilia B32/4
[28] = test system: Aeromonas hydrophila BCRC 13018
[29] = test system: Enterococcus faecalis BCRC 10066
[30] = test system: Helicobacter pylori ATCC 43504
[31] = test system: Helicobacter pylori ATCC 43629
[32] = test system: Helicobacter pylori ATCC 700392
Helicobacter pylori = test system: Helicobacter pylori
[33] = test system: Pseudomonas aeruginosa ATCC 19660
[34] = test system: Streptococcus agalactiae 819
[35] = test system: Streptococcus agalactiae BCRC 10787
Vibrio alginolyticus = test system: Vibrio alginolyticus
Vibrio vulnificus 204 = test system: Vibrio vulnificus 204

SMILES: CC[C@H](C)[C@H](NC(=O)[C@H](CO)NC(=O)[C@H](CC(N)=O)NC(=O)[C@H](CC(C)C)NC(=O)[C@H](Cc1ccc(O)cc1)NC(=O)[C@H](CCCCN)NC(=O)[C@H](CCCCN)NC(=O)[C@@H](NC(=O)[C@H](C)NC(=O)[C@H](CCSC)NC(=O)[C@H](CCC(N)=O)NC(=O)[C@H](CCCCN)NC(=O)[C@H](CCCN=C(N)N)NC(=O)[C@H](CC(C)C)NC(=O)[C@H](CCCN=C(N)N)NC(=O)[C@@H](NC(=O)[C@H](Cc1ccc(O)cc1)NC(=O)[C@H](CC(N)=O)NC(=O)[C@H](CC(=O)O)NC(=O)[C@@H](NC(=O)[C@H](Cc1ccccc1)NC(=O)[C@@H](NC(=O)[C@H](C)NC(=O)[C@H](CC(=O)O)NC(=O)[C@H](CO)NC(=O)[C@@H](N)Cc1cnc[nH]1)C(C)C)[C@@H](C)O)[C@@H](C)O)C(C)C)C(=O)N[C@@H](CC(C)C)C(=O)N[C@@H](CC(N)=O)C(N)=O [HSDAVFTDNYTRLRKQMAVKKYLNSILN]
MIC [10]: ≥ 150 µM
MIC [11]: 1.56 µM (≈ 5.2 µg/mL)
MIC [4]: ≥ 150 µM
MIC [12]: ≥ 150 µM
MIC [13]: ≥ 75.1 µM
MIC [14]: 1.23 µM (≈ 4.1 µg/mL)
MIC [15]: > 150 µM
MIC [16]: ≥ 45.3 µM

SMILES: CC[C@H](C)[C@H](NC(=O)[C@H](CC(C)C)NC(=O)[C@H](CCCCN)NC(=O)CNC(=O)[C@H](C)NC(=O)[C@H](Cc1cnc[nH]1)NC(=O)[C@@H](NC(=O)[C@H](CC(C)C)NC(=O)CNC(=O)[C@H](Cc1cnc[nH]1)NC(=O)[C@H](Cc1ccccc1)NC(=O)[C@@H](NC(=O)[C@H](CC(C)C)NC(=O)CNC(=O)[C@H](CC(C)C)NC(=O)[C@@H](N)Cc1ccccc1)[C@@H](C)CC)C(C)C)C(=O)N[C@@H](Cc1cnc[nH]1)C(=O)NCC(=O)N[C@@H](CC(C)C)C(=O)N[C@H](C(=O)N[C@@H](Cc1cnc[nH]1)C(=O)N[C@@H](CCCN=C(N)N)C(=O)N[C@@H](CC(N)=O)C(=O)N[C@@H](CCCN=C(N)N)C(=O)NCC(=O)O)[C@@H](C)CC [FLGLIFHGLVHAGKLIHGLIHRNRG]
MIC (Bacillus subtilis): ≥ 48 µM
MIC (Candida albicans): 96 µM (≈ 267 µg/mL)
MIC (Enterococcus faecium): 15 µM (≈ 41.6 µg/mL)
MIC [17]: 7.5 µM (≈ 20.8 µg/mL)
MIC [18]: 3 µM (≈ 8.33 µg/mL)
MIC (Morganella morganii): 12 µM (≈ 33.3 µg/mL)
MIC (Saccharomyces cerevisiae): ≥ 384 µM
MIC (Salmonella enterica): 6 µM (≈ 16.7 µg/mL)
MIC (Staphylococcus aureus): 1.5 µM (≈ 4.16 µg/mL)
MIC [19]: 7.5 µM (≈ 20.8 µg/mL)
MIC [20]: 7.5 µM (≈ 20.8 µg/mL)
MIC (Staphylococcus warneri): 15 µM (≈ 41.6 µg/mL)

Second part, the compound after the results:

MIC [1]: 0.827 µM (≈ 2 µg/mL)
MIC [2]: 0.413 µM (≈ 1 µg/mL)
MIC [3]: 0.827 µM (≈ 2 µg/mL)
MIC [4]: 0.827 µM (≈ 2 µg/mL)
MIC [5]: 0.413 µM (≈ 1 µg/mL)
MIC [6]: 0.827 µM (≈ 2 µg/mL)
MIC [7]: 0.827 µM (≈ 2 µg/mL)
MIC [8]: 0.413 µM (≈ 1 µg/mL)
MIC [9]: 0.827 µM (≈ 2 µg/mL)
SMILES: CC[C@H](C)[C@H](NC(=O)[C@@H]1CCCN1C(=O)[C@H](Cc1c[nH]c2ccccc12)NC(=O)[C@H](CCC(N)=O)NC(=O)[C@H](CCCCN)NC(=O)[C@@H](NC(=O)[C@@H](NC(=O)[C@@H](N)CCCCN)C(C)C)C(C)C)C(=O)NCC(=O)N[C@@H](CCCCN)C(=O)N[C@H](C(=O)N[C@H](C(=O)N[C@@H](CCCCN)C(=O)N[C@@H](CCCCN)C(=O)N[C@H](C(=O)N[C@H](C(=O)N[C@@H](CCCCN)C(=O)N[C@@H](CCCCN)C(=O)N[C@H](C(=O)N[C@H](C(=O)N[C@@H](CCCCN)C(=O)O)C(C)C)C(C)C)C(C)C)C(C)C)C(C)C)C(C)C [KVVKQWPIGKVVKKVVKKVVK]

MIC [21]: ≥ 128 µM
MIC [22]: ≥ 64 µM
MIC [23]: ≥ 256 µM
MIC [24]: > 256 µM
MIC [14]: > 256 µM
MIC [15]: 128 µM (≈ 220 µg/mL)
MIC [25]: ≥ 128 µM
MIC [26]: ≥ 128 µM
MIC [27]: ≥ 256 µM
SMILES: CC[C@H](C)[C@H](N)C(=O)N[C@@H](CC(C)C)C(=O)NCC(=O)N[C@@H](C)C(=O)N[C@H](C(=O)N[C@@H](CC(C)C)C(=O)N1CCC[C@H]1C(=O)N[C@@H](CC(C)C)C(=O)N[C@H](C(=O)N[C@@H](CO)C(=O)NCC(=O)N[C@@H](CC(C)C)C(=O)N[C@@H](CC(C)C)C(=O)N[C@@H](CO)C(=O)N[C@@H](CC(N)=O)C(=O)N[C@@H](CCCCN)C(=O)N[C@@H](CC(C)C)C(N)=O)C(C)C)[C@@H](C)CC [ILGAILPLVSGLLSNKL]

MIC [28]: 6.22 µM (≈ 17.6 µg/mL)
MIC [29]: 6.22 µM (≈ 17.6 µg/mL)
MIC [30]: 4.23 µM (≈ 12 µg/mL)
MIC [31]: 4.23 µM (≈ 12 µg/mL)
MIC [32]: 4.23 µM (≈ 12 µg/mL)
MIC (Helicobacter pylori): 4.23 µM (≈ 12 µg/mL)
MIC [33]: 6.22 µM (≈ 17.6 µg/mL)
MIC [34]: 6.22 µM (≈ 17.6 µg/mL)
MIC [35]: 6.22 µM (≈ 17.6 µg/mL)
MIC (Vibrio alginolyticus): 6.22 µM (≈ 17.6 µg/mL)
MIC (Vibrio vulnificus 204): 6.22 µM (≈ 17.6 µg/mL)
SMILES: CC[C@H](C)[C@H](NC(=O)[C@H](CC(C)C)NC(=O)[C@H](CCC(=O)O)NC(=O)[C@H](CCC(N)=O)NC(=O)[C@H](CC(C)C)NC(=O)[C@@H](NC(=O)[C@H](CCCCN)NC(=O)[C@H](CCC(N)=O)NC(=O)[C@@H](NC(=O)[C@@H](NC(=O)[C@H](CCC(=O)O)NC(=O)CNC(=O)[C@H](CO)NC(=O)[C@@H](NC(=O)[C@H](CCC(N)=O)NC(=O)[C@H](CCCCN)NC(=O)CNC(=O)[C@H](CCC(N)=O)NC(=O)[C@H](CC(C)C)NC(=O)[C@@H](N)CCC(N)=O)C(C)C)C(C)C)C(C)C)C(C)C)C(=O)N[C@@H](CCC(N)=O)C(=O)N[C@@H](CO)C(=O)N[C@H](C(=O)N[C@@H](C)C(=O)N[C@@H](CCCCN)C(=O)N1CCC[C@H]1C(N)=O)C(C)C [QLQGKQVSGEVVQKVLQELIQSVAKP]
